EC50 and Activity data for 23 compounds are collected here from ChEMBL document CHEMBL1152874, “Synthesis of sulfonyl curcumin mimics exerting a vasodilatation effect on the basilar artery of rabbits” (Bioorg Med Chem Lett, 2009).

The nature of one assay: Vasodilation activity against depolarization-induced contraction in anaesthetized white rabbit basilar artery. Type of assay: functional, tissue-based, Oryctolagus cuniculus.
Conditions: not given
The term EC50 denotes the concentration that produces a half-maximal response. A high value points to lower potency in that assay. Compound `COc1cc(/C=C/C(=O)CC(=O)/C=C/c2ccc(O)c(OC)c2)ccc1O` [CURCUMIN] yielded an EC50 of 7.48 µM.
The compound `COc1cc(/C=C/C(=O)c2cccc(NS(=O)(=O)c3c(Cl)cccc3Cl)c2)ccc1O` displayed an EC50 of 2.78 µM.
Same read-out and setting: for `COc1cc(/C=C/C(=O)c2cccc(NS(=O)(=O)c3ccc(Cl)cc3)c2)ccc1O` the value was 5.58 µM.

Another assay is described as follows: Vasodilation activity against depolarization-induced contraction in anaesthetized white rabbit basilar artery at 10 uM. In kind it is functional, tissue-based. As to conditions: Oryctolagus cuniculus.
Turning to `COc1ccc(S(=O)(=O)Nc2cccc(C(=O)/C=C/c3ccc(O)c(OC)c3)c2)cc1`, the Activity is 26.4%.
In turn, `COc1cc(/C=C/C(=O)c2cccc(NS(=O)(=O)c3ccccc3)c2)ccc1O` gave an Activity of 40.4%.
On the same count and under the same terms, for `COc1cc(/C=C/C(=O)CC(=O)/C=C/c2ccc(O)c(OC)c2)ccc1O` [CURCUMIN] the value was 58.4%; for `COc1cc(/C=C/C(=O)c2cccc(NS(=O)(=O)c3ccc(Cl)cc3Cl)c2)ccc1O`, 4.2%; for `COc1cc(/C=C/C(=O)c2cccc(NC(=O)c3ccc(Cl)cc3Cl)c2)ccc1O`, 27.9%.
`COc1cc(/C=C/C(=O)c2cccc(NC(=O)C(C)C)c2)ccc1O` gave an Activity of 22.5%.
In turn, `COc1cc(/C=C/C(=O)c2cccc(NC(=O)c3ccco3)c2)ccc1O` gave an Activity of 41.7%.
On to `COc1cc(/C=C/C(=O)c2cccc(NS(=O)(=O)c3ccc(OC(F)(F)F)cc3)c2)ccc1O`, for which the Activity amounted to 76.7%.
On the same count and under the same terms, next, `COc1cc(/C=C/C(=O)c2cccc(NC(C)=O)c2)ccc1O`: 20.6%; `COc1cc(/C=C/C(=O)c2cccc(NS(=O)(=O)C(C)C)c2)ccc1O`: 8.4%.
With `COc1cc(/C=C/C(=O)c2cccc(NS(=O)(=O)c3c(Cl)cccc3Cl)c2)ccc1O`, the Activity amounted to 99.4%.
As for `COc1cc(/C=C/C(=O)c2cccc(NS(=O)(=O)c3ccc(Cl)cc3)c2)ccc1O`, the Activity came to 93.4%.
Same read-out and setting: for `CCCS(=O)(=O)Nc1cccc(C(=O)/C=C/c2ccc(O)c(OC)c2)c1` the value was 42.3%; for `COc1cc(/C=C/C(=O)c2cccc(NS(=O)(=O)c3cc(Cl)cc(Cl)c3)c2)ccc1O`, 37.3%; for `COc1cc(/C=C/C(=O)c2cccc(NC(=O)c3cccs3)c2)ccc1O`, 27.1%.
Regarding `COc1cc(/C=C/C(=O)c2cccc(NS(C)(=O)=O)c2)ccc1O`, the Activity was 4.2%.
The same measure, in the same setting: for `CCCC(=O)Nc1cccc(C(=O)/C=C/c2ccc(O)c(OC)c2)c1` the value was 32.3%.
The same measure, in the same setting: for `COc1cc(/C=C/C(=O)c2cccc(N)c2)ccc1O` the value was 8.3%; for `COc1cc(/C=C/C(=O)c2cccc(NS(=O)(=O)c3ccc(C(F)(F)F)cc3)c2)ccc1O`, 65.8%; for `COc1cc(/C=C/C(=O)c2cccc(NS(=O)(=O)c3cccs3)c2)ccc1O`, 36.1%.
Compound `COc1cc(/C=C/C(=O)c2cccc(NS(=O)(=O)c3cccc(C(F)(F)F)c3)c2)ccc1O` registered an Activity of 52.3%.
On the same count and under the same terms, for `COc1cc(/C=C/C(=O)c2cccc(NS(=O)(=O)c3ccc(Cl)c(Cl)c3)c2)ccc1O` the value was 30.2%; for `COc1cc(/C=C/C(=O)c2cccc(NS(=O)(=O)c3ccc(F)cc3)c2)ccc1O`, 71.8%.
